Laboratory results: article PMC3171769, “Catalytical Properties of Free and Immobilized Aspergillus niger Tannase” (Enzyme Research, 2011)

System: T1, tannase (tannin acyl hydrolase, TAH) from Aspergillus niger GH1
T1 construct: native intracellular enzyme from submerged culture with tannic acid
Test: HPLC of released gallic acid; Lineweaver-Burk
Assay type: biochemical
Conditions: free, partially purified enzyme; 50 mM citrate pH 5.5, 30 °C; read-out: Free tannase / K M
Excerpt: HPLC of released gallic acid; Lineweaver-Burk on tannase (tannin acyl hydrolase, TAH) from Aspergillus niger GH1

## COC(=O)c1cc(O)c(O)c(O)c1 [methyl gallate]
  Km: 0.433 mM
